Each block holds one compound with its values, some of them ahead of it. Calls of active or inactive are those of the source.
Columns and labels:
[1] = growth induction of Burl-1 ts yeast mutant, dose response, counter-screen for SUMOylation pathway inhibitor project, whole organism, S. cerevisiae, luminescence (AID 463199); format: functional
[2] = target: T1, Corticotropin-releasing factor receptor 2/Corticotropin-releasing factor-binding protein (Homo sapiens, UniProt P24387+Q13324); test: activators of CRF receptor 2 with binding protein – uHTS hits, confirmation (AID 602473); format: functional; settings: read-out: EC50_Mean
T1 sequence (Q13324 whole entry): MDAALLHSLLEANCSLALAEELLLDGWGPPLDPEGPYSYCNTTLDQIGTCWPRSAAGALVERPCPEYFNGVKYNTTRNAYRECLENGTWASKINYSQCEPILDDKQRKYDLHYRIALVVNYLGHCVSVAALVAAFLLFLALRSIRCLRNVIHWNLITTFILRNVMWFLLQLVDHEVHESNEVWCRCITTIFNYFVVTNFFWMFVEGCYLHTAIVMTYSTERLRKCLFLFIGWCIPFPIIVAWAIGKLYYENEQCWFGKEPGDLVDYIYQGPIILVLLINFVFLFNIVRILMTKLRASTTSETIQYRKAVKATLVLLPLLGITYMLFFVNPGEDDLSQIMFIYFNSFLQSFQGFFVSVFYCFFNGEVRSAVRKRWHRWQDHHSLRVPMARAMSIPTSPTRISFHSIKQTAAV
T1 sequence (P24387 whole entry): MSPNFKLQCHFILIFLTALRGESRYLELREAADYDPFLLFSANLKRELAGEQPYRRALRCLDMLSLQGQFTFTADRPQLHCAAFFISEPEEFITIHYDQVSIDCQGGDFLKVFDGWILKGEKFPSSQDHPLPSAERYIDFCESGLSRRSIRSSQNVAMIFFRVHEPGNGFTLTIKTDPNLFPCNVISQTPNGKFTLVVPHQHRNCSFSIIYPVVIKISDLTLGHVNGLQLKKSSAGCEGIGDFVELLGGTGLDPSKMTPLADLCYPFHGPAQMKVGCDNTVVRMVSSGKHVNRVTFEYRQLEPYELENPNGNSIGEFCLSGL

[3] = target: T1, Corticotropin-releasing factor receptor 2/Corticotropin-releasing factor-binding protein; test: Dose Response confirmation of uHTS hits for small molecule antagonists of the CRF-binding protein and CRF-R2 receptor complex.; format: functional; settings: read-out: IC50_Mean
Candida albicans = test: growth inhibition of resistant C. albicans, dose response, CaCi-8, fluconazole, Alamar Blue, dry powder (AID 488807); format: functional, organism-based
[4] = target: T2, Beta-2 adrenergic receptor (Homo sapiens, UniProt P07550); test: Dose response for HTS for Beta-2AR agonists via FAP method from Powderset3.; format: functional
T2 sequence (P07550 whole entry): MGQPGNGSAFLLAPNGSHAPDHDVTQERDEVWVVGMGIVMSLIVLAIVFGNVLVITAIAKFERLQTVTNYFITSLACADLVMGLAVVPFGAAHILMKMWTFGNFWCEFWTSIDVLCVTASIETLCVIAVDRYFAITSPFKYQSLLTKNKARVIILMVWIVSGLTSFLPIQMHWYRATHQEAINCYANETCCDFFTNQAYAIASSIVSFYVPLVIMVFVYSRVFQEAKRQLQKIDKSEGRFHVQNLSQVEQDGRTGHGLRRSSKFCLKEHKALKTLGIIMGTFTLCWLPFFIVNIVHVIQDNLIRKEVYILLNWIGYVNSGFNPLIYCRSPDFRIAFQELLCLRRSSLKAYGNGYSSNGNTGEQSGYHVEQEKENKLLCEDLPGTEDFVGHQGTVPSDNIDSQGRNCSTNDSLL

[5] = target: Neuropeptide Y receptor type 1 (Homo sapiens, UniProt P25929); test: Fluorescence-based counterscreen for agonists of NPY-Y2: cell-based high-throughput dose response assay for agonists of NPY-Y1.; format: functional
Chain of Neuropeptide Y receptor type 1 (P25929 whole entry): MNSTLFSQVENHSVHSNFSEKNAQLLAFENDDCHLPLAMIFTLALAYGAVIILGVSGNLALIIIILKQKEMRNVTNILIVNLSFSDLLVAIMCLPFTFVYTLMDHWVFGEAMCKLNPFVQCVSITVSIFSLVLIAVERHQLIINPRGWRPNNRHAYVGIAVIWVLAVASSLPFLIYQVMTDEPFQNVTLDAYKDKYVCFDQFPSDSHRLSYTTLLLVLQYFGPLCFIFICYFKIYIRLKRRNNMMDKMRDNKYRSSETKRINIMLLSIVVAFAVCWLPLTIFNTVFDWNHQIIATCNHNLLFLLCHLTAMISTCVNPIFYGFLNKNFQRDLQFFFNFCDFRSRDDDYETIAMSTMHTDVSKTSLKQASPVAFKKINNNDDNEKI

[6] = target: Neuropeptide Y receptor type 2 (Homo sapiens, UniProt P49146); test: Fluorescence-based cell-based high-throughput dose response assay for agonists of NPY-Y2. [Related pubchem assays: 1703 (Screening assay (CNGC inhibitors).), 1359 (Screening assay (NPY-Y2 potentiators or agonists).), 1304 (Screening assay (NPY-Y1 potentiators or agonists).), 1710 (Screening assay (NPY-Y2 agonists).), 1791 (Summary AID.)]; format: functional
Chain of Neuropeptide Y receptor type 2 (P49146 whole entry): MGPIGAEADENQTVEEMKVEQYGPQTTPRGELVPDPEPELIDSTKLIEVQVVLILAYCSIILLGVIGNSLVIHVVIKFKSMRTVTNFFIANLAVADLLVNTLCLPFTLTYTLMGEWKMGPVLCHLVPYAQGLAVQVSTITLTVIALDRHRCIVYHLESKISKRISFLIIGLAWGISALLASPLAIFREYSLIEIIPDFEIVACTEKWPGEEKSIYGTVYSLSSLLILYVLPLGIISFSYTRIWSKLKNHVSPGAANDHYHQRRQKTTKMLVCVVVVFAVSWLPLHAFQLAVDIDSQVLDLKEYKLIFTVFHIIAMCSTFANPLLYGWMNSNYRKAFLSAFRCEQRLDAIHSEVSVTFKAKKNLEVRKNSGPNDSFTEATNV

[7] = target: T2, Beta-2 adrenergic receptor; test: beta2AR agonists driving receptor internalization, dose response, cell-based, FAP fluorogen, flow cytometry, cherry pick 1 (AID 588763); format: functional
HEK293 [8] = test: Fluorescence-based counterscreen for potentiators or agonists of NPY-Y2: cell-based high-throughput dose response assay to identify inhibitors of cyclic nucleotide gated ion channel (CNGC) activity. In this assay, the parental HEK293 cell line transfected with a cyclic-nucleotide gated ion channel (CNGC)-based cAMP sensor is used to measure inhibition of isoproterenol-induced CNGC activity by test compound.; format: functional; settings: Homo sapiens
[9] = target: Glucose-6-phosphate 1-dehydrogenase (Homo sapiens, UniProt P11413); test: human G6PD enzyme inhibitors, dose response, selectivity assay for P. falciparum G6PD inhibitor project, biochemical, fluorescence (AID 504792); format: functional
Chain of Glucose-6-phosphate 1-dehydrogenase (P11413 whole entry): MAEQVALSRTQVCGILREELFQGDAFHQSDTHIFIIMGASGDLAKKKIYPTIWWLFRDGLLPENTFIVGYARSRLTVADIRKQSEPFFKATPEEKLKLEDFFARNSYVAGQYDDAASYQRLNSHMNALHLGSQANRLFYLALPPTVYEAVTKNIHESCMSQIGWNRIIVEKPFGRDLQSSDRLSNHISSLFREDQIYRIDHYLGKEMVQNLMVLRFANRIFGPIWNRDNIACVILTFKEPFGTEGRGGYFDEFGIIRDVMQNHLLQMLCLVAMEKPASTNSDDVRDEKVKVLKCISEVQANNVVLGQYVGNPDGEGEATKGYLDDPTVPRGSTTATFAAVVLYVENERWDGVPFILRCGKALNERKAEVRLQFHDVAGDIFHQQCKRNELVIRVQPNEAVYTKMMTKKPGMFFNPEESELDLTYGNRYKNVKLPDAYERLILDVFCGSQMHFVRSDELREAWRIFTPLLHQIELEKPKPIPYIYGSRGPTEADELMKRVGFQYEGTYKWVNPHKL

A-375 [10] = test: A375 melanoma cell viability reduction, dose response, counter-screen for MITF modulator project, cherry-pick samples, set 2 (AID 540335); format: functional, cell-based; settings: Homo sapiens
[11] = inhibitors of PGC1a acetylation in cells, dose response, cell-based, cherry-picked samples (AID 720514); format: functional;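 also: potency may reflect raised or lowered acetylation signal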
A-375 [12] = test: MITF: Counter assay: A375 proliferation Measured in Cell-Based System Using Plate Reader - 2084-03_Inhibitor_Dose_DryPowder_Activity. [Related pubchem assays (depositor defined):AID488944]; format: functional; settings: Homo sapiens
[13] = HeLa 4N DNA content increase, dose response, cell-based, IC50 (AID 1117351); format: functional
[14] = HeLa 2N DNA content increase, dose response, cell-based, IC50 (AID 1117349); format: functional
BJ [15] = test: cytotoxicity toward BJ-TERT-LT-ST fibroblasts, dose response, cell-based, RAS-independent, luminescence (AID 1935); format: functional; settings: Homo sapiens;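 also: BJ fibroblasts immortalized with TERT plus LT and ST oncogenes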
[16] = cytotoxicity toward DRD oncogenic fibroblasts, dose response, cell-based, non-viral oncogenic, luminescence (AID 1934); format: functional; settings: Homo sapiens
Jurkat [17] = test: SAR Analysis of small molecule inhibitors of T-cell specific antigen receptor-induced NF-kB activation in a Jurkat cell line using a luminescence assay - Set 2. [Related pubchem assays (depositor defined):AID435003, AID435012, AID465]; format: functional, cell-based; settings: Homo sapiens
Jurkat [18] = test: antigen receptor-induced NF-kB inhibitors, dose response, Jurkat, luciferase reporter, luminescence, B- and T-cell (AID 489004); format: functional, cell-based; settings: Homo sapiens;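 also: NF-kB luciferase reporter Jurkat cells stimulated with PMA plus ionomycin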
HEK293 [19] = test: SAR Analysis of small molecule inhibitors of T-cell specific antigen receptor-induced NF-kB activation in a HEK-293T cell line using a luminescence assay - Set 2. [Related pubchem assays (depositor defined):AID435003, AID435012, AID489026]; format: functional, cell-based; settings: Homo sapiens
HEK293 [20] = test: cytotoxicity in HEK293T NF-kB-Luc cells, SAR follow-up, cytotoxicity control for NF-kB activator project, cell-based, resazurin fluorescence (AID 493251); format: functional; settings: Homo sapiens
BJ [21] = test: cytotoxicity toward BJ-TERT fibroblasts, dose response, cell-based, RAS-independent, luminescence (AID 1933); format: functional; settings: Homo sapiens
[22] = cytotoxicity in HEK-293T NF-kB-Luc cells, dose response, cytotoxicity control for B/T-cell NF-kB inhibitor project, cell-based, uHTS hits (AID 489019); format: functional;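 also: IC50 reflects cytotoxicity as loss of cell viability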
BJ [23] = test: cells; format: functional, cell-based; settings: Homo sapiens

EC50 [2]: > 53 µM (inactive)
IC50 [3]: > 47.1 µM (inactive)
SMILES: CCCCn1c(N)c(N(Cc2ccccc2OC)C(=O)c2c(CC)noc2C)c(=O)[nH]c1=O
AC50 [1]: 61.2 µM (active)

SMILES: COC(=O)Cn1nc(-c2ccccc2)c2cc(Cl)ccc21
AC50 (Candida albicans): 9.53 µM (active)

SMILES: Clc1ccc(OCc2nnc(SCc3nc4ccccc4[nH]3)n2Cc2ccco2)cc1
EC50 [4]: 0.0069 µM (active)
EC50 [5]: > 35.4 µM (not active)
EC50 [6]: > 35.4 µM (not active)
EC50 [7]: 0.205 µM (active)
EC50 (HEK293 [8]): > 35.4 µM (not active)

SMILES: CCCCC1C(=O)N(c2ccccc2)N(c2ccc(O)cc2)C1=O (centres undefined) [OXYPHENBUTAZONE ANHYDROUS]
IC50 [9]: > 80 µM (inactive)
AC50 (A-375 [10]): > 35 µM (active)
AC50 [11]: 9.85 µM (active)
AC50 (A-375 [12]): > 35 µM (active)
IC50 [13]: > 10 µM (inactive)
IC50 [14]: > 10 µM (inactive)

SMILES: COc1cc2nc(NC(=O)c3ccccc3)sc(=O)c2cc1OC
EC50 (BJ [15]): > 150 µM (inconclusive)
EC50 [16]: 79 µM (active)
IC50 (Jurkat [17]): 0.56 µM (active)
IC50 (Jurkat [18]): 0.76 µM (active)
IC50 (HEK293 [19]): 65.6 µM (inactive)
IC50 (HEK293 [20]): > 80 µM (inactive)
EC50 (BJ [21]): 20.1 µM (active)
IC50 [22]: > 80 µM (inactive)
EC50 (BJ [23]): > 150 µM (not active)
